Data published in patent US20070191393A1, “Macrocyclic anilinopyrimidines with substituted sulphoximine as selective inhibitors of cell cycle kinases” (priority 2006, published 2007).

Tests used:
Type in all cases: biochemical
Chk1 = molecular target: T1, Chk1 (Homo sapiens, UniProt O14757); assay: Chk1 kinase assay; details: 10 μM ATP, 22° C., 60 min
T1 construct: made in house; host or cells: Sf9 insect cells
T1 sequence (O14757 1-476): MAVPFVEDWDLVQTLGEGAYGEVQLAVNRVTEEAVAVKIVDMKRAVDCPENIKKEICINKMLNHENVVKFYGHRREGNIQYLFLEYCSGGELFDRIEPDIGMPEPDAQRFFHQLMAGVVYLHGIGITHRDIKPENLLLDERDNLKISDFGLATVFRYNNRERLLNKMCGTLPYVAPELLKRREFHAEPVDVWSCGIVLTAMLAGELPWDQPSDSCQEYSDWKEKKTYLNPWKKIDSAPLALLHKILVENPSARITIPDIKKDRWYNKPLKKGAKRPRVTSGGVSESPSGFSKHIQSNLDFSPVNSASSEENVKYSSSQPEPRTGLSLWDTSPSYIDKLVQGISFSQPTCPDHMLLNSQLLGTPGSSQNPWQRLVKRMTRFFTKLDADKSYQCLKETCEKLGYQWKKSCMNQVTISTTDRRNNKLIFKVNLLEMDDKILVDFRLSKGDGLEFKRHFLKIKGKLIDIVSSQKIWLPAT
Description: Recombinant Chk1 protein was expressed in Sf9 insect cells and then purified. The kinase substrate used was the biotinylated peptide having the amino acid sequence biotin-ALKLVRTPSFVITAK, which was purchased from Biosynthan GmbH in Berlin.
Chk1 [0.11 μg/ml in the test mixture, test volume 5 μl] was incubated in the presence of various concentrations of test substances (0 μM, and 10 measurement points within the range 0.001-20 μM in duplicate) in assay buffer [50 mM HEPES pH 7.5, 10 mM MgCl2, […], 0.1 mM Na ortho-vanadate, 1.0 mM dithiothreitol, 1 tablet/2.5 ml complete protease inhibitor (from Roche), 10 μM ATP, 1.0 μM substrate peptide biotin-ALKLVRTPSFVITAK, 1.0% dimethyl sulphoxide] at 22° C. for 60 min. The reaction was stopped by adding 5 μl of an EDTA/detection solution [100 mM EDTA, 800 mM potassium fluoride, 0.2% BSA, 0.2 μM streptavidin-XLent (from CisBio), 9.6 nM anti-phospho-Akt antibody (from Cell Signalling Technology), 4 nM protein-A-Eu(K) (from CisBio)]. The fluorescence emission at 620 nm and 665 nm after excitation with light of the wavelength 350 nm was measured in a Rubystar HTRF instrument from BMG Labsystems.
The measured data (ratio of emission 665 divided by emission 620 multiplied by 10 000) were normalized to 0% inhibition (enzyme reaction without inhibitor) and 100% inhibition (all assay components apart from enzyme). The IC50 values were determined by means of a 4-parameter fit using the company's own software.

CDK2/CycE = molecular target: T2, CDK2/CycE (Homo sapiens, UniProt P24941); assay: CDK2/CycE kinase assay; details: 0.5 μM ATP, 22° C., 10 min
T2 construct: GST; purchased ProQinase GmbH, Freiburg; host or cells: baculovirus-infected Sf9 insect cells
Description: Recombinant CDK2- and CycE-GST fusion proteins, purified from baculovirus-infected insect cells (Sf9), were purchased from ProQinase GmbH, Freiburg. The histone IIIS used as kinase substrate was purchased from Sigma. CDK2/CycE (50 ng/measurement point) was incubated in the presence of various concentrations of test substances (0 μM, and within the range 0.01-100 μM) in assay buffer [50 mM Tris/HCl pH 8.0, 10 mM MgCl2, 0.1 mM Na ortho-vanadate, 1.0 mM dithiothreitol, 0.5 μM ATP, 10 μg/measurement point histone IIIS, 0.2 μCi/measurement point ^33P-gamma ATP, 0.05% NP40, 1.25% dimethyl sulphoxide] at 22° C. for 10 min. The reaction was stopped by adding EDTA solution (250 mM, pH 8.0, 15 μl/measurement point).
15 μl of each reaction mixture were loaded onto P30 filter strips (from Wallac), and non-incorporated ^33P-ATP was removed by washing the filter strips three times in 0.5% strength phosphoric acid for 10 min each time.
After the filter strips had been dried at 70° C. for 1 hour, the filter strips were covered with scintillator strips (MeltiLex™ A, from Wallac) and baked at 90° C. for 1 hour. The amount of incorporated ^33P (substrate phosphorylation) was determined by scintillation measurement in a gamma radiation counter (Wallac).

Aurora-A = molecular target: T3, Aurora-A (Homo sapiens, UniProt O14965); assay: Aurora-A kinase assay; details: 8 μM ATP, 22° C., 90 min
T3 construct: purchased Upstate; host or cells: Sf21 insect cells
T3 sequence (O14965 1-403): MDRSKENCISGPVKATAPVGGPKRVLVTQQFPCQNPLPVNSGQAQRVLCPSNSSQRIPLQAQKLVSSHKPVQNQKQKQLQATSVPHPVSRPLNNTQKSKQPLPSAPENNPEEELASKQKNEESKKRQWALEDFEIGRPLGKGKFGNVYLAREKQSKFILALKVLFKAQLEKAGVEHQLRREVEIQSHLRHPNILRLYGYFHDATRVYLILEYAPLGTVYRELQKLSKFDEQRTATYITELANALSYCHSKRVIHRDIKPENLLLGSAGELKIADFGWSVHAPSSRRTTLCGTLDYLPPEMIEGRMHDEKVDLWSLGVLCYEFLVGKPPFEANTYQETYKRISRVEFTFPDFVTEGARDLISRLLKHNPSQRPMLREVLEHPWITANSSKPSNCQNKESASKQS
Description: Recombinant Aurora-A protein, expressed in Sf21 insect cells, was purchased from Upstate. The kinase substrate used was the biotinylated peptide having the amino acid sequence biotin-LNYNRRLSLGPMF, which was purchased from Jerini A G in Berlin.
Aurora-A [15 nM in the test mixture, test volume 5 μl] was incubated in the presence of various concentrations of test substances (0 μM and 10 measurement points within the range 0.001-20 μM in duplicate) in assay buffer [25 mM HEPES pH 7.4, 3 mM MnCl2, 5 mM MnCl2, 0.1 mM Na ortho-vanadate, 2.0 mM dithiothreitol, 0.05% bovine serum albumin (BSA), 0.01% Triton X-100, 8 μM ATP, 4 nCi/μl gama-P33-ATP, 5.0 μM substrate peptide biotin-LNYNRRLSLGPMF, 1.0% dimethyl sulphoxide] at 22° C. for 90 min. The reaction was stopped by adding 12.5 μl of an EDTA/detection solution [16 mM EDTA, 40 mM ATP, 0.08% Triton X-100, 4 mg/ml PVT streptavidin SPA beads (from Amersham)]. After incubation for 10 minutes, the SPA beads were pelleted by centrifugation at 1000×G for 10 minutes. Measurement took place in a PerkinElmer Topcount scintillation counter.
The measured data were normalized to 0% inhibition (enzyme reaction without inhibitor) and 100% inhibition (enzyme reaction in the presence of 0.1 μM staurosporine (from Sigma)). The IC50 values were determined by means of a 4-parameter fit using the company's own software.

Compound	IC50 (Chk1) [nM]	IC50 (CDK2/CycE) [nM]	IC50 (Aurora-A) [nM]
CCOC(=O)N=S(C)(=O)c1ccc2cc1NCCCCNc1nc(ncc1Br)N2 (single isomer, unassigned) [Example 3]	6840	990	77
CCOC(=O)N=S(C)(=O)c1ccc2cc1NCCCCNc1nc(ncc1Br)N2 (racemic) [Example 1, (RS)—S-[1^5-Bromo-2,4,9-triaza-1(2,4)-pyrimidina-3(1,3)-benzenacyclononaphan-3^4-yl]-N-(ethoxycarbonyl)-S-methylsulphoximide]	4640	323	27
C[Si](C)(C)CCS(=O)(=O)N=S(C)(=O)c1ccc2cc1OCCCCNc1nc(ncc1Br)N2 (racemic) [Example 9, (RS)—S-[1^5-Bromo-4-oxa-2,9-diaza-1(2,4)-pyrimidina-3(1,3)-benzenacyclononaphan-3^4-yl]-S-methyl-N-[2-(trimethylsilyl)ethylsulphonyl]sulphoximide]	> 12500	> 1000	652
CCOC(=O)N=S(C)(=O)c1ccc2cc1NCCCCNc1nc(ncc1Br)N2 (single isomer, unassigned) [Example 2]	3630	229	26
CCOC(=O)N=S(C)(=O)c1ccc2cc1NCCCCNc1nc(ncc1I)N2 (racemic) [Example 4, (RS)—N-(Ethoxycarbonyl)-S-[1^5-iodo-2,4,9-triaza-1(2,4)-pyrimidina-3(1,3)-benzenacyclononaphan-3^4-yl]-S-methylsulphoximide]	1850	319	31
CCCOC(=O)N=S(C)(=O)c1ccc2cc1OCCCCNc1nc(ncc1Br)N2 (racemic) [Example 8, (RS)—S-[1^5-Bromo-4-oxa-2,9-diaza-1(2,4)-pyrimidina-3(1,3)-benzenacyclononaphan-3^4-yl]-S-methyl-N-(propoxycarbonyl)sulphoximide]	> 20000	> 1000	–

Next, values leading:

IC50 (Chk1) [nM]	IC50 (CDK2/CycE) [nM]	IC50 (Aurora-A) [nM]	Compound
> 20000	> 1000	44	CCCS(=O)(=O)N=S(C)(=O)c1ccc2cc1NCCCCNc1nc(ncc1Br)N2 (racemic) [Example 7, (RS)—S-[1^5-Bromo-2,4,9-triaza-1(2,4)-pyrimidina-3(1,3)-benzenacyclononaphan-3^4-yl]-S-methyl-N-(propylsulphonyl)sulphoximide]
3770	71	21	CCNC(=O)N=S(C)(=O)c1ccc2cc1NCCCCNc1nc(ncc1Br)N2 (racemic) [Example 6, (RS)—S-[1^5-Bromo-2,4,9-triaza-1(2,4)-pyrimidina-3(1,3)-benzenacyclononaphan-3^4-yl]-N-(ethylcarbamoyl)-S-methylsulphoximide]
> 20000	> 1000	844	C[Si](C)(C)CCS(=O)(=O)N=S(C)(=O)c1ccc2cc1NCCCCNc1nc(ncc1Br)N2 (racemic) [Example 5, (RS)—S-[1^5-Bromo-2,4,9-triaza-1(2,4)-pyrimidina-3(1,3)-benzenacyclononaphan-3^4-yl]-S-methyl-N-[2-(trimethylsilyl)ethylsulphonyl]sulphoximide]
